The text below walks through data of patent US20250135006A1, “AMPHIPHILIC TLR7/8 ADJUVANTS AND USES THEREOF” (Pfizer Inc., priority 2023, published 2025).

SMILES strings stand for the structures.

In test [1] the target is T1, human toll like receptor 7 (hTLR7) (Homo sapiens, UniProt Q9NYK1).
T1 construct: host or cells: HEK293 (HEK-Blue hTLR7)
T1 sequence (Q9NYK1 27-1049): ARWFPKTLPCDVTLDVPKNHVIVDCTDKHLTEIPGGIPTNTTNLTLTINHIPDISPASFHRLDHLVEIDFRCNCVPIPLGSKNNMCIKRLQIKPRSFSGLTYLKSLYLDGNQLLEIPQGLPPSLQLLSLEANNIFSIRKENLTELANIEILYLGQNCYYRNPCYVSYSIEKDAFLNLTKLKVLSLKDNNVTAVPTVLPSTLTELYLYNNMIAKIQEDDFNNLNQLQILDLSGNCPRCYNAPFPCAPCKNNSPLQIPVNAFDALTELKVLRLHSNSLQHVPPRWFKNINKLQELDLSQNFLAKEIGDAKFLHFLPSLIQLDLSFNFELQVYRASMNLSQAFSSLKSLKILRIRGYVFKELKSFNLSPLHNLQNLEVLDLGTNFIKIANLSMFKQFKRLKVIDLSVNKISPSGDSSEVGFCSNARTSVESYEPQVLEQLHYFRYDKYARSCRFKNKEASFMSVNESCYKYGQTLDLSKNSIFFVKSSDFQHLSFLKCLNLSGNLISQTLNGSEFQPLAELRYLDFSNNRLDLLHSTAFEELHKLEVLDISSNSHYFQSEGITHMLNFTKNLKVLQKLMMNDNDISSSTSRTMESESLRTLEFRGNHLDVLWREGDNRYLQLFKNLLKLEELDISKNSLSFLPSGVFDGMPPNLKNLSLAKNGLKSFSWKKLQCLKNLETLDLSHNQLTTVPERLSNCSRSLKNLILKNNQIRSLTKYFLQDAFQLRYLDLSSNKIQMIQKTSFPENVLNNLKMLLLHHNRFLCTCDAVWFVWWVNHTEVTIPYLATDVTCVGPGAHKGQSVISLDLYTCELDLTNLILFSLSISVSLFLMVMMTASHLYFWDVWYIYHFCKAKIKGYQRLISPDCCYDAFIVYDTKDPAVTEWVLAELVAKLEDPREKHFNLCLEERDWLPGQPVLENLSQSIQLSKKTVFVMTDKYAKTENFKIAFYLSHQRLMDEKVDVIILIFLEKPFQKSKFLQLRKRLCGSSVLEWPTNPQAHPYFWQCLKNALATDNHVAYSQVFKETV
Nature of the test: hTLR7 in-vitro functional assay (HEK-Blue hTLR7 SEAP reporter). As to conditions: HEK-Blue hTLR7 cells, overnight incubation. The test is classed as cell-based.

The target in test [2] is T2, human toll like receptor 8 (hTLR8) (Homo sapiens, UniProt Q9NR97).
T2 construct: host or cells: HEK293 (HEK-Blue hTLR8)
T2 sequence (Q9NR97 27-1041): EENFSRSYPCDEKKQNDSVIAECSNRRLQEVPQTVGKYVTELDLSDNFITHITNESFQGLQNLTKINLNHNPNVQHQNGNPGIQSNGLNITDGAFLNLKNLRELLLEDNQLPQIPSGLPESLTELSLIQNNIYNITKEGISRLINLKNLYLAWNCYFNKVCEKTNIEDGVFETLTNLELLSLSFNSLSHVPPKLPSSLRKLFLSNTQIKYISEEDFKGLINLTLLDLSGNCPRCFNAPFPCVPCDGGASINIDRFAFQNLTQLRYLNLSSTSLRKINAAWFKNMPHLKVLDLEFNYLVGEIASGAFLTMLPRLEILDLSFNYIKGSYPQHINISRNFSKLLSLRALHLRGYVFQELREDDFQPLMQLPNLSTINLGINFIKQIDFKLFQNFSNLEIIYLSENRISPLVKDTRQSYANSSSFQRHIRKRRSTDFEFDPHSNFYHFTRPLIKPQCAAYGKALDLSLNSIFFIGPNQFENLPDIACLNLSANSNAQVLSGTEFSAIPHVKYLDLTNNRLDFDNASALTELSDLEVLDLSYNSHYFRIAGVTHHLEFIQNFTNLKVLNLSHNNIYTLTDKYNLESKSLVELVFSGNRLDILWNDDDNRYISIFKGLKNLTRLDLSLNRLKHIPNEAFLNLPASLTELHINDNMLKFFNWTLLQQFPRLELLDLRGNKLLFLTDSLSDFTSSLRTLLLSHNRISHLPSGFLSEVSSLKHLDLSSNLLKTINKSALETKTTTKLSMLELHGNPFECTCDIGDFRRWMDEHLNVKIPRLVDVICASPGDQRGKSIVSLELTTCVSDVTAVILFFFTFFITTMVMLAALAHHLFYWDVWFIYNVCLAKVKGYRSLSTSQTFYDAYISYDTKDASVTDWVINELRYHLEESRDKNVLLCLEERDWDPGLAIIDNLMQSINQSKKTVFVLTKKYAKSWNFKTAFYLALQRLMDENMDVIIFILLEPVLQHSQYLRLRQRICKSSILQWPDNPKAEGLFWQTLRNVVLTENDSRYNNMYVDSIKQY
Nature of the test: hTLR8 in-vitro functional assay (HEK-Blue hTLR8 SEAP reporter). The format is cell-based. As to conditions: HEK-Blue hTLR8 cells, overnight incubation.

The test system of test [3] is RSV A strain (M37). Description: In vivo immunogenicity with RSV antigen, RSV microneutralization assay. As to conditions: 0.5 μg bivalent RSV antigen alone or mixed with 2 nmol adjuvant, intramuscular days 0 and 21, sera day 35. Details: species or system female BALB/c mice. The protocol:
In two independent in vivo immunogenicity studies, female BALB/c mice were immunized intramuscularly twice three weeks apart (days 0 and 21) with 0.5 μg of RSV antigen alone or mixed with 2 nmol of Example 1 adjuvant (Compound 1). Sera were collected at day 35 to determine RSV neutralization antibody titers (nAb). The RSV antigen tested was bivalent comprising a RSV F Protein of Subtype A comprising the sequence of SEQ ID NO: 1 and SEQ ID NO: 2, as well as a RSV F Protein of Subtype B comprising the sequence of SEQ ID NO: 3 and SEQ ID NO: 4.
50% nAb responses against RSV A strain (M37) were measured by an RSV microneutralization assay at 2 weeks post dose 2.

Test [4] relates to S. pneumoniae serotype 3. The format is in vivo, female Swiss-Webster mice. The note with it: mouse.

By EC50 is commonly meant the concentration at which the effect is half-maximal. A low value points to higher potency in that assay. `CCCCc1nc2c(N)nc3cc(CCCN4CCN(C(=O)CCOCCOCCOCCOCCOCCOCCOCCOCCOCCOCCOCCOCCOCCOCCOCCOCCOCCOCCOCCOCCOCCOCCOCCOCCNC(=O)CCOCCOCCOCCOCCNC(=O)O[C@H]5CC[C@@]6(C)C(=CC[C@H]7[C@@H]8CC[C@H]([C@H](C)CCCC(C)C)[C@@]8(C)CC[C@@H]76)C5)CC4)ccc3c2n1CC(C)(CO)CO` [Compound 1, (3beta)-cholest-5-en-3-yl {91-[4-(3-{4-amino-2-butyl-1-[3-hydroxy-2-(hydroxymethyl)-2-methylpropyl]-1H-imidazo[4,5-c]quinolin-7-yl}propyl)piperazin-1-yl]-15,91-dioxo-3,6,9,12,19,22,25,28,31,34,37,40,43,46,49,52,55,58,61,64,67,70,73,76,79,82,85,88-octacosaoxa-16-azahennonacont-1-yl}carbamate]: the EC50 in test [1] worked out at 0.122 µM; in test [2], 1.36 µM. Besides, the “50% neutralizing antibody titers (nAb) to RSV, GMT” value is given as 7502 in test [3] (Study 1) and 5362 in test [3] (Study 2). Besides, in test [4] (0.1 μg S. pneumoniae serotype 3-CRM197 antigen with adjuvant (2 nmol; AlPO4 100 μg), IM weeks 0 and 3, sera week 5), the “OPA geometric mean titers (GMT)” value is recorded as 833. Besides, the “OPA geometric mean titers compared with reference adjuvants” value in test [4] (S. pneumoniae serotype 3 antigen, versus aluminum phosphate and free TLR 7/8 agonist) is “higher average OPA geometric mean titers than aluminum phosphate, as well as the free TLR 7/8 agonist molecule”.
